The structures appear in SMILES notation.

The experiment addresses T1, human neutrophil elastase (HNE) (Homo sapiens, UniProt P08246).
T1 construct: purchased Sigma E8140
T1 sequence (P08246 30-247 limits assumed): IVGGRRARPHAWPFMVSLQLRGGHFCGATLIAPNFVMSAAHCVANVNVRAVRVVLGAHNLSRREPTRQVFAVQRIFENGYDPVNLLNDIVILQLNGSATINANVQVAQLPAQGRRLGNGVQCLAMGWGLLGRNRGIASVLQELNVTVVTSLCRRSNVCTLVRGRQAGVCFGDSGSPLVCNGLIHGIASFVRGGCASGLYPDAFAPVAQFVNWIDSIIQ
Kind of experiment: HNE Enzyme Assay (fluorogenic peptide substrate MeOSuc-Ala-Ala-Pro-Val-AMC). It is filed as biochemical. The following applies: human leukocyte elastase 0.00072 U/mL, substrate 100 μM, 25° C., 30 minutes, at least two separate experiments; read-out: HNE inhibition (IC50 values). On the procedure:
Compounds of this invention were tested for potency in a human neutrophil elastase (HNE) enzyme activity assay.
Assays were performed in 96-well plates in a total assay volume of 100 μL. The final concentration of elastase enzyme (human leukocyte elastase, Sigma E8140) was 0.00072 U/mL. The peptide substrate (MeOSuc-Ala-Ala-Pro-Val-AMC, Calbiochem #324740) was used at a final concentration of 100 μM. The final concentration of DMSO was 1% in the assay buffer (0.05M Tris.HCl, 0.1M NaCl, 0.1M CaCl2, 0.0005% Brij-35, pH 7.5). The enzymatic reaction was started by addition of the enzyme and incubated at 25° C. for 30 minutes. After incubation, the reaction was stopped by addition of soybean trypsin inhibitor (Sigma T9003) at a final concentration of 50 μg/well. Fluorescence was measured using a Molecular Devices fluorescence plate reader using 380 nm excitation and 460 nm emission wavelengths.
A concentration response to each compound was performed and the effect of compound in each experiment was expressed as a percentage inhibition of the control enzyme fluorescence. Dose response curves were plotted and compound potency (IC50) was determined. Compounds were tested in at least two separate experiments.
A word on the IC50: it is the concentration that inhibits the measured activity by half. Take `Cc1c(-c2ccnn2-c2ccc(C#N)cc2)n(C(=O)NC(C)C2CC[N+](C)(C)CC2)c(=O)n1-c1cccc(C(F)(F)F)c1` (stereo not drawn) [Example 35, 4-(1-{[5-[2-(4-Cyano-phenyl)-2H-pyrazol-3-yl]-4-methyl-2-oxo-3-(3-trifluoromethyl-phenyl)-2,3-dihydro-imidazole-1-carbonyl]-amino}-ethyl)-1,1-dimethyl-piperidinium benzene sulfonate]: the IC50 is less than 1 nM.

`Cc1c(-c2ccnn2-c2ccc(C#N)cc2)n(C(=O)N[C@H]2C[C@H]3CC[C@@H](C2)[N+]3(C)C)c(=O)n1-c1cccc(C(F)(F)F)c1` [Example 36, (1S,3R,5R)-3-{[5-[2-(4-Cyano-phenyl)-2H-pyrazol-3-yl]-4-methyl-2-oxo-3-(3-trifluoromethyl-phenyl)-2,3-dihydro-imidazole-1-carbonyl]-amino}-8,8-dimethyl-8-azonia-bicyclo[3.2.1]octane benzene sulfonate]: the IC50 is less than 1 nM.

With `Cc1c(-c2ccnn2-c2ccc(C#N)cc2)n(C(=O)N[C@@H]2C[C@@H]3C[N+](C)(C)C[C@@H]3C2)c(=O)n1-c1cccc(C(F)(F)F)c1` [Example 37, (3aS,5R,6aR)-5-{[5-[2-(4-Cyano-phenyl)-2H-pyrazol-3-yl]-4-methyl-2-oxo-3-(3-trifluoromethyl-phenyl)-2,3-dihydro-imidazole-1-carbonyl]-amino}-2,2-dimethyl-octahydro-cyclopenta[c]pyrrolium benzene sulfonate], the IC50 was less than 1 nM.

In the case of `Cc1c(-c2ccnn2-c2ccc(C#N)cc2)n(C(=O)N[C@@H](C)c2cc[n+](C)cc2)c(=O)n1-c1cccc(C(F)(F)F)c1` [Example 38, 4-((S)-1-{[5-[2-(4-Cyano-phenyl)-2H-pyrazol-3-yl]-4-methyl-2-oxo-3-(3-trifluoromethyl-phenyl)-2,3-dihydro-imidazole-1-carbonyl]-amino}-ethyl)-1-methyl-pyridinium benzene sulfonate], the IC50 was less than 1 nM.

For the compound `Cc1c(-c2ccnn2-c2ccc(C#N)cc2)n(C(=O)N[C@@H]2C[C@H]3CC[C@@H](C2)[N+]3(C)C)c(=O)n1-c1cccc(C(F)(F)F)c1` [Example 39, (1R,3S,5S)-3-{[5-[2-(4-Cyano-phenyl)-2H-pyrazol-3-yl]-4-methyl-2-oxo-3-(3-trifluoromethyl-phenyl)-2,3-dihydro-imidazole-1-carbonyl]-amino}-8,8-dimethyl-8-azonia-bicyclo[3.2.1]octane benzene sulfonate], the IC50 is less than 1 nM.

In the case of `CC[N+]1(CC)CCC(NC(=O)n2c(-c3ccnn3-c3ccc(C#N)cc3)c(C)n(-c3cccc(C(F)(F)F)c3)c2=O)CC1` [Example 40, 4-{[5-[2-(4-Cyano-phenyl)-2H-pyrazol-3-yl]-4-methyl-2-oxo-3-(3-trifluoromethyl-phenyl)-2,3-dihydro-imidazole-1-carbonyl]-amino}-1,1-diethyl-piperidinium benzene sulfonate], the IC50 is less than 1 nM.

`Cc1c(-c2ccnn2-c2ccc(C#N)cc2)n(C(=O)N[C@H]2CC[C@H]([N+](C)(C)C)CC2)c(=O)n1-c1cccc(C(F)(F)F)c1` [Example 41, (Trans-4-{[5-[2-(4-cyano-phenyl)-2H-pyrazol-3-yl]-4-methyl-2-oxo-3-(3-trifluoromethyl-phenyl)-2,3-dihydro-imidazole-1-carbonyl]-amino}-cyclohexyl)-trimethyl-ammonium benzene sulfonate]: the IC50 was less than 1 nM.

Turning to `CC[n+]1ccc([C@H](C)NC(=O)n2c(-c3ccnn3-c3ccc(C#N)cc3)c(C)n(-c3cccc(C(F)(F)F)c3)c2=O)cc1` [Example 42, 4-((S)-1-{[5-[2-(4-Cyano-phenyl)-2H-pyrazol-3-yl]-4-methyl-2-oxo-3-(3-trifluoromethyl-phenyl)-2,3-dihydro-imidazole-1-carbonyl]-amino}-ethyl)-1-ethyl-pyridinium benzene sulfonate], the IC50 is less than 1 nM.

For the compound `Cc1c(-c2ccnn2-c2ccc(C#N)cc2)n(C(=O)N[C@H]2CC[C@H]([N+](C)(C)Cc3ccccc3)CC2)c(=O)n1-c1cccc(C(F)(F)F)c1` [Example 43, Benzyl-(trans-4-{[5-[2-(4-cyano-phenyl)-2H-pyrazol-3-yl]-4-methyl-2-oxo-3-(3-trifluoromethyl-phenyl)-2,3-dihydro-imidazole-1-carbonyl]-amino}-cyclohexyl)-dimethyl-ammonium bromide], the IC50 is less than 1 nM.

On to `CC[N+](C)(C)[C@H]1CC[C@H](NC(=O)n2c(-c3ccnn3-c3ccc(C#N)cc3)c(C)n(-c3cccc(C(F)(F)F)c3)c2=O)CC1` [Example 44, (Trans-4-{[5-[2-(4-cyano-phenyl)-2H-pyrazol-3-yl]-4-methyl-2-oxo-3-(3-trifluoromethyl-phenyl)-2,3-dihydro-imidazole-1-carbonyl]-amino}-cyclohexyl)-ethyl-dimethyl-ammonium benzene sulfonate], for which the IC50 is less than 1 nM.

As to `Cc1c(-c2ccnn2-c2ccc(C#N)cc2)n(C(=O)N[C@H]2CC[C@@H]([N+](C)(C)C)CC2)c(=O)n1-c1cccc(C(F)(F)F)c1` [Example 45, (Cis-4-{[5-[2-(4-cyano-phenyl)-2H-pyrazol-3-yl]-4-methyl-2-oxo-3-(3-trifluoromethyl-phenyl)-2,3-dihydro-imidazole-1-carbonyl]-amino}-cyclohexyl)-trimethyl-ammonium benzene sulfonate], the IC50 was 1 to 10 nM.

With `Cc1c(-c2ccnn2-c2ccc(C#N)cc2)n(C(=O)N[C@H]2CC[C@@H]([N+](C)(C)Cc3ccccc3)CC2)c(=O)n1-c1cccc(C(F)(F)F)c1` [Example 46, Benzyl-(cis-4-{[5-[2-(4-cyano-phenyl)-2H-pyrazol-3-yl]-4-methyl-2-oxo-3-(3-trifluoromethyl-phenyl)-2,3-dihydro-imidazole-1-carbonyl]-amino}-cyclohexyl)-dimethyl-ammonium bromide], the IC50 fell in the range of 1 to 10 nM.

With `Cc1c(-c2ccnn2-c2ccc(C#N)cc2)n(C(=O)NC(C)(C)c2cc[n+](C)cc2)c(=O)n1-c1cccc(C(F)(F)F)c1` [Example 47, 4-(1-{[5-[2-(4-Cyano-phenyl)-2H-pyrazol-3-yl]-4-methyl-2-oxo-3-(3-trifluoromethyl-phenyl)-2,3-dihydro-imidazole-1-carbonyl]-amino}-1-methyl-ethyl)-1-methyl-pyridinium benzene sulfonate], the IC50 was less than 1 nM.

Consider `CC[N+](C)(C)[C@H]1CC[C@@H](NC(=O)n2c(-c3ccnn3-c3ccc(C#N)cc3)c(C)n(-c3cccc(C(F)(F)F)c3)c2=O)CC1` [Example 48, (Cis-4-{[5-[2-(4-cyano-phenyl)-2H-pyrazol-3-yl]-4-methyl-2-oxo-3-(3-trifluoromethyl-phenyl)-2,3-dihydro-imidazole-1-carbonyl]-amino}-cyclohexyl)-ethyl-dimethyl-ammonium benzene sulfonate], for which the IC50 is 1 to 10 nM.

With `Cc1c(-c2ccnn2-c2ccc(C#N)cc2)n(C(=O)N[C@@H](C)C(=O)N2CC[N+](C)(Cc3ccccc3)CC2)c(=O)n1-c1cccc(C(F)(F)F)c1` [Example 49, 1-Benzyl-4-((S)-2-{[5-[2-(4-cyano-phenyl)-2H-pyrazol-3-yl]-4-methyl-2-oxo-3-(3-trifluoromethyl-phenyl)-2,3-dihydro-imidazole-1-carbonyl]-amino}-propionyl)-1-methyl-piperazin-1-ium bromide], the IC50 was less than 1 nM.

The values above are taken from patent publication US10023558B2, “Compounds” (CHIESI FARMACEUTICI S.P.A., priority 2016, dated 2018).
